{"source": "ChEMBL document CHEMBL4177573", "about": "(Bioorg Med Chem, 2017)", "key": {"Mus musculus [1]": {"test_system": "Mus musculus", "test": "Anorectic activity in C57BL/6J mouse assessed as inhibition of food intake at 0.3 mg/kg/day, sc dosed as […] and measured after 24 hrs", "type": "functional"}, "Mus musculus [2]": {"test_system": "Mus musculus", "test": "Anorectic activity in overnight fasted Y2R-/- C57BL/6J mouse assessed as inhibition of food intake at 10 nmol/kg, sc followed by re-feeding post dose and measured for 2 hrs", "type": "functional, organism-based"}, "Mus musculus [3]": {"test_system": "Mus musculus", "test": "Anorectic activity in overnight fasted C57BL/6J mouse assessed as inhibition of food intake at 10 nmol/kg, sc followed by re-feeding post dose and measured for 2 hrs", "type": "functional, organism-based"}, "[4]": {"test": "MRT in C57BL/6J mouse at 1 mg/kg, iv measured during 5 mins to 24 hrs by LC/MS/MS method", "type": "ADME, organism-based", "conditions": "in vivo"}, "[5]": {"biological_target": "Neuropeptide Y receptor type 4 (Rattus norvegicus, UniProt Q63447)", "sequence (Q63447 whole entry)": "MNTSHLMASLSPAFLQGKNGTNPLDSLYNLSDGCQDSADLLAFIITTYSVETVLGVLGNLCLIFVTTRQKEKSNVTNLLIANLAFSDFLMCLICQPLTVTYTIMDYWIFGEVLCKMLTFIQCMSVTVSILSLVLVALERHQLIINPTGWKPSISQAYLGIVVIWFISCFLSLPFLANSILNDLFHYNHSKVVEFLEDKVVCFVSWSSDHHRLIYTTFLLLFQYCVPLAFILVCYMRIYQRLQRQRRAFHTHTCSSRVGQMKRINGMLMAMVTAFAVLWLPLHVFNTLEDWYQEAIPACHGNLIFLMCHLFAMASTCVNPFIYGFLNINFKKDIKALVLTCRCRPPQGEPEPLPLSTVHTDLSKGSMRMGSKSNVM", "test": "Agonist activity at rat neuropeptide Y4 receptor by [35S]GTPgammaS binding assay", "type": "functional"}, "Mus musculus [6]": {"test_system": "Mus musculus", "test": "Drug level in C57BL/6J mouse at 1 mg/kg, iv measured during 5 mins to 24 hrs by LC/MS/MS method", "type": "ADME, organism-based", "conditions": "in vivo, read-out: Drug uptake"}, "Mus musculus [7]": {"test_system": "Mus musculus", "test": "Antiobesity activity in DIO C57BL/6J mouse assessed as reduction in body weight at 0.03 mg/kg, sc for 2 weeks dosed as continuous administration by infusion of osmotic pumps relative to untreated control", "type": "functional", "conditions": "336 h"}, "Mus musculus [8]": {"test_system": "Mus musculus", "test": "Antiobesity activity in DIO C57BL/6J mouse assessed as reduction in body weight at 1 mg/kg, sc […] for 2 weeks dosed by infusion of osmotic pumps", "type": "functional", "conditions": "336 h"}, "Mus musculus [9]": {"test_system": "Mus musculus", "test": "Antiobesity activity in DIO C57BL/6J mouse assessed as reduction in mesenteric fat weight at 0.003 to 0.03 mg/kg, sc for 2 weeks dosed as continuous administration by infusion of osmotic pumps relative to untreated control", "type": "functional, organism-based"}, "Mus musculus [10]": {"test_system": "Mus musculus", "test": "Antiobesity activity in DIO C57BL/6J mouse assessed as reduction in body weight at 0.01 mg/kg, sc for 2 weeks dosed as continuous administration by infusion of osmotic pumps relative to untreated control", "type": "functional", "design": "scale not given: the % may be the effect or the level left"}, "Mus musculus [11]": {"test_system": "Mus musculus", "test": "Anorectic activity in DIO C57BL/6J mouse assessed as reduction in cumulative food intake at 0.03 mg/kg, sc for 2 weeks dosed as continuous administration by infusion of osmotic pumps relative to untreated control", "type": "functional, organism-based"}, "Mus musculus [12]": {"test_system": "Mus musculus", "test": "Antiobesity activity in DIO C57BL/6J mouse assessed as reduction in body weight at 0.003 to 0.03 mg/kg, sc for 2 weeks dosed as continuous administration by infusion of osmotic pumps relative to untreated control", "type": "functional, organism-based"}, "Mus musculus [13]": {"test_system": "Mus musculus", "test": "Anorectic activity in C57BL/6J mouse assessed as inhibition of food intake at 0.03 to 1 mg/kg/day, sc for 3 days dosed as continuous administration by infusion using osmotic pump", "type": "functional, organism-based"}, "[14]": {"test": "Volume of distribution at steady state in C57BL/6J mouse at 1 mg/kg, iv measured during 5 mins to 24 hrs by LC/MS/MS method", "type": "ADME, organism-based", "conditions": "in vivo, read-out: Vdss"}, "Mus musculus [15]": {"test_system": "Mus musculus", "test": "Anorectic activity in DIO C57BL/6J mouse assessed as reduction in cumulative food intake at 0.01 mg/kg, sc for 2 weeks dosed as continuous administration by infusion of osmotic pumps relative to untreated control", "type": "functional, organism-based"}, "Mus musculus [16]": {"test_system": "Mus musculus", "test": "Anorectic activity in C57BL/6J mouse assessed as inhibition of food intake at 0.3 mg/kg/day, sc dosed as […] and measured after 12 hrs", "type": "functional"}, "[17]": {"test": "AUC (0 to 24 hrs) in C57BL/6J mouse at 1 mg/kg, iv measured during 5 mins to 24 hrs by LC/MS/MS method", "type": "ADME, organism-based", "design": "dose 1 mg/kg, time < 24 hr, route intravenous", "conditions": "in vivo"}, "[18]": {"biological_target": "T1, Neuropeptide Y receptor type 1 (Homo sapiens, UniProt P25929)", "T1 sequence (P25929 whole entry)": "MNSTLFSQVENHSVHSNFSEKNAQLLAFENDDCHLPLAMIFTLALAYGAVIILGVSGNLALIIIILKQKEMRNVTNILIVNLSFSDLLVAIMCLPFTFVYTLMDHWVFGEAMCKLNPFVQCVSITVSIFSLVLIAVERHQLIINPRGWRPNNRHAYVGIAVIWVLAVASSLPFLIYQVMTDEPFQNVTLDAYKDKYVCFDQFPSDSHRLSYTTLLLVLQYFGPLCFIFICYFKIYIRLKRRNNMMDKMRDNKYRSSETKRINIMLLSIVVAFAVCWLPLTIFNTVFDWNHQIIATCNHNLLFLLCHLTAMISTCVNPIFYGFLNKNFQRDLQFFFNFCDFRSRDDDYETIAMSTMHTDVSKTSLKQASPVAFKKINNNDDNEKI", "test": "Agonist activity at human neuropeptide Y1 receptor by [35S]GTPgammaS binding assay", "type": "functional"}, "Mus musculus [19]": {"test_system": "Mus musculus", "test": "Antiobesity activity in DIO C57BL/6J mouse assessed as reduction in body weight at 0.01 mg/kg, sc for 2 weeks dosed as continuous administration by infusion of osmotic pumps", "type": "functional", "conditions": "336 h"}, "[20]": {"test": "Total clearance in C57BL/6J mouse at 1 mg/kg, iv measured during 5 mins to 24 hrs by LC/MS/MS method", "type": "ADME, organism-based", "conditions": "in vivo"}, "[21]": {"test": "Cmax in C57BL/6J mouse at 1 mg/kg, sc measured during 5 mins to 24 hrs by LC/MS/MS method", "type": "ADME, organism-based", "design": "dose 1 mg/kg, route subcutaneous", "conditions": "in vivo"}, "Mus musculus [22]": {"test_system": "Mus musculus", "test": "Anorectic activity in C57BL/6J mouse assessed as inhibition of food intake at 0.03 mg/kg/day, sc for 3 days dosed as continuous administration by infusion using osmotic pump", "type": "functional", "conditions": "72 h"}, "Mus musculus [23]": {"test_system": "Mus musculus", "test": "Antiobesity activity in DIO C57BL/6J mouse assessed as reduction in liver weight at 0.003 to 0.03 mg/kg, sc for 2 weeks dosed as continuous administration by infusion of osmotic pumps relative to untreated control", "type": "functional, organism-based"}, "[24]": {"test": "MRT in C57BL/6J mouse at 1 mg/kg, sc measured during 5 mins to 24 hrs by LC/MS/MS method", "type": "ADME, organism-based", "conditions": "in vivo"}, "Mus musculus [25]": {"test_system": "Mus musculus", "test": "Anorectic activity in DIO C57BL/6J mouse assessed as reduction in cumulative food intake at 0.03 mg/kg, sc for 2 weeks dosed as continuous administration by infusion of osmotic pumps relative to 0.3 mg/kg/day, sc PYY(3-36)", "type": "functional"}, "Mus musculus [26]": {"test_system": "Mus musculus", "test": "Antiobesity activity in DIO C57BL/6J mouse assessed as reduction in perirenal weight at 0.003 to 0.03 mg/kg, sc for 2 weeks dosed as continuous administration by infusion of osmotic pumps relative to untreated control", "type": "functional, organism-based"}}, "note": "Activity calls are given as the source filed them. No cut-off for these calls is given here."}
{"molecule": "CC[C@](C)(NC(=O)[C@H]1C[C@H](O)CN1C(=O)[C@H](CO)NC(=O)c1c[nH]cn1)C(=O)N[C@@H](Cc1ccncc1)C(=O)N[C@@H](CC1CCCCC1)C(=O)N[C@@H](CC(C)(C)C)C(=O)N[C@@H](CC(N)=O)C(=O)N[C@@H](CCCCN)C(=O)NC(C)(C)C(=O)N[C@H](C(=O)N[C@@H](CCCNC(=N)N)C(=O)N[C@@H](CCC(N)=O)C(=O)N[C@@H](CCCNC(=N)N)C(=O)N[C@@H](CC1CCCCC1)C(N)=O)[C@@H](C)O", "values": [{"measurement": "inhibition in vivo at 0.3 mg/kg/day", "setting": "Mus musculus [1]", "value": 22, "unit": "%"}, {"measurement": "Activity", "setting": "Mus musculus [2]", "value": "inactive"}, {"measurement": "Activity", "setting": "Mus musculus [3]", "value": "Active"}, {"measurement": "MRT", "setting": "[4]", "value": 21, "unit": "min"}, {"measurement": "EC50", "setting": "[5]", "value": "> 1000", "unit": "nM"}, {"measurement": "concentration", "setting": "Mus musculus [6]", "value": 2060, "unit": "nM"}, {"measurement": "inhibition in vivo at 0.03 mg/kg", "setting": "Mus musculus [7]", "value": 15.1, "unit": "%"}, {"measurement": "inhibition in vivo at 1 mg/kg", "setting": "Mus musculus [8]", "value": 7.6, "unit": "%"}, {"measurement": "Activity", "setting": "Mus musculus [9]", "value": "Active"}, {"measurement": "Activity", "setting": "Mus musculus [10]", "value": 8.3, "unit": "%"}, {"measurement": "Activity", "setting": "Mus musculus [11]", "value": "Active"}, {"measurement": "Activity", "setting": "Mus musculus [12]", "value": "Dose-dependent effect"}, {"measurement": "Activity", "setting": "Mus musculus [13]", "value": "Dose-dependent effect"}, {"measurement": "Vd", "setting": "[14]", "value": 0.293, "unit": "L/kg"}, {"measurement": "Activity", "setting": "Mus musculus [15]", "value": "Active"}, {"measurement": "inhibition in vivo at 0.3 mg/kg/day", "setting": "Mus musculus [16]", "value": 41, "unit": "%"}, {"measurement": "AUC(0-t) at 24 h", "setting": "[17]", "value": 0.577, "unit": "µM·h"}, {"measurement": "EC50", "setting": "[18]", "value": "> 1000", "unit": "nM"}, {"measurement": "inhibition in vivo at 0.01 mg/kg", "setting": "Mus musculus [19]", "value": 8.9, "unit": "%"}, {"measurement": "clearance", "setting": "[20]", "value": 14.2, "unit": "mL/min/kg"}, {"measurement": "Cmax", "setting": "[21]", "value": 452, "unit": "nM"}, {"measurement": "inhibition in vivo at 0.03 mg/kg/day", "setting": "Mus musculus [22]", "value": 52, "unit": "%"}, {"measurement": "Activity", "setting": "Mus musculus [23]", "value": "Active"}, {"measurement": "MRT", "setting": "[24]", "value": 33.6, "unit": "min"}, {"measurement": "fold change (FC)", "setting": "Mus musculus [25]", "value": 30}, {"measurement": "Activity", "setting": "Mus musculus [26]", "value": "Active"}]}
